The values that follow come from patent publication US6284785A, “1-arenesulfonyl-2-aryl-pyrrolidine and pyridine derivatives” (Hoffmann- La Roche Inc., priority 1999, dated 2001).

The assay deals with T1, rat mGlu 1a receptor (Rattus norvegicus, UniProt P23385).
T1 construct: expressed in transfected cells; host or cells: EBNA cells (transient transfection)
The assay can be described thus: [Ca2+]i measurements (FLIPR, Fluo-3 AM) on mGlu 1a transfected EBNA cells; agonist or antagonist (against 10 μM glutamate). In kind it is cell-based. The conditions noted are these: for Remarks (agonist / antagonist): table of substituents of the Examples, column Remarks. How it is done: cDNA encoding rat mGlu 1a receptor obtained from Prof. Nakanishi (Kyoto, Japan) was transiently tranfected into EBNA cells using a procedure described by Schlaeger et. al, New Dev. New Appl. Anim Cell Techn., Proc. ESACT Meet., 15th (1998), 105-112 and 117-120. [Ca^2+ ]i measurements were performed on mGlu 1a transfected EBNA cells after incubation of the cells with Fluo-3 AM (0.5 μM final concentration) for 1hour at 37° C. followed by 4 washes with assay buffer (DMEM supplemented with Hank's salt and 20 mM HEPES. [Ca^2+ ]i measurements were done using a fluorometric imaging plate reader (FLIPR, Molecular Devices Corporation, La Jolla, Calif. USA). When compounds were evaluated as antagonists they were tested against 10 μM glutamate as agonist.
The inhibition (antagonists) or activation (agonists) curves were fitted with a four parameter logistic equation giving EC50, IC50, and Hill coefficient using the iterative non linear curve fitting software Origin (Microcal Software Inc., Northampton, Mass., USA).

T1 sequence (P23385 19-1199): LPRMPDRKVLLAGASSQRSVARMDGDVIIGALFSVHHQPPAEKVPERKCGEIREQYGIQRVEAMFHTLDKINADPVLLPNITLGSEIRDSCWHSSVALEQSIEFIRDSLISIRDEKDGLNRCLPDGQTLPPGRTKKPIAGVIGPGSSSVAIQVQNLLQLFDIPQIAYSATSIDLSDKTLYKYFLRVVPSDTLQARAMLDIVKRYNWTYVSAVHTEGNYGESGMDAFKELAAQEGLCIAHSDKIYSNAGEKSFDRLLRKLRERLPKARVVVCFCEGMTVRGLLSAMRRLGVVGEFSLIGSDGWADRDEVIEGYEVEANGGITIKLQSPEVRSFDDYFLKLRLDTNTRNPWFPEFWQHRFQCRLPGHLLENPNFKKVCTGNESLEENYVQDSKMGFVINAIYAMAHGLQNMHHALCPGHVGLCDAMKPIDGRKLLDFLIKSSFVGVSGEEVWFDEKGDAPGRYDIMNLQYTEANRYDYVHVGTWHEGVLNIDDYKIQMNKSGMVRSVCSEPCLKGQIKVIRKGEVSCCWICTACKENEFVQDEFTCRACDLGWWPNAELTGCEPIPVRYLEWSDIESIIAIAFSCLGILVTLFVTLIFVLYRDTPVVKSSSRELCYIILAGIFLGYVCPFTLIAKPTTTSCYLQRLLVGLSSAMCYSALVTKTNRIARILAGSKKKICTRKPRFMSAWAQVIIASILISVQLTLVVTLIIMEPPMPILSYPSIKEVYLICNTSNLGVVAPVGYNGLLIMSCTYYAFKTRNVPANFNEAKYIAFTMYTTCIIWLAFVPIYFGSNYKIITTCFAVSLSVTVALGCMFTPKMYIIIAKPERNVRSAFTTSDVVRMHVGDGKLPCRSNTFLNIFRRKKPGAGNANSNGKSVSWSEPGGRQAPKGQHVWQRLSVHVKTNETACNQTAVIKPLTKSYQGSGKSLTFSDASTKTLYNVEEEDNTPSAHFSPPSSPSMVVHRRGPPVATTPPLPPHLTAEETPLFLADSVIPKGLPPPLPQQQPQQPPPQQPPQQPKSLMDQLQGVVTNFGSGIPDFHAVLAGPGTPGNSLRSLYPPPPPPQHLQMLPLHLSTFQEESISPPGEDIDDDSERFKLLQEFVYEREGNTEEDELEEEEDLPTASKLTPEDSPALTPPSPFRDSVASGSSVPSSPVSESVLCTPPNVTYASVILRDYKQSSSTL

For the molecule `CN(C)c1ccc(C2CCCN2S(=O)(=O)c2ccc(F)cc2)cc1` (racemic) [Example 73, (RS)-2-(4-N,N-Dimethylamino-phenyl)-1-(4-fluoro-benzenesulfonyl)-pyrrolidine], the “Remarks (agonist / antagonist)” value is on record as “Antagonist”. Same read-out and setting: the entry for `COc1ccc(C2CCCN2S(=O)(=O)c2ccc(Cl)cc2)cc1` (racemic) [Example 24, (RS)-1-(4-Chloro-benzenesulfonyl)-2-(4-methoxyl-phenyl)-pyrrolidine] is “Antagonist”; for `CCc1ccc(C2CCCN2S(=O)(=O)c2ccc(F)cc2)cc1` (racemic) [Example 80, (RS)-2-(4-Ethyl-phenyl)-1-(4-fluoro-benzenesulfonyl)-pyrrolidine] it is “Antagonist”. On the same count and under the same terms, as for `O=S(=O)(c1ccc(Cl)cc1)N1CCCC1c1ccco1` (racemic) [Example 71, (RS)-1-(4-Chloro-benzenesulfonyl)-2-furan-2-yl-pyrrolidine], the entry is “Antagonist”. As to `CCc1ccc(S(=O)(=O)N2CCCC2c2ccc(F)cc2)cc1` (racemic) [Example 21, (RS)-1-(4-Ethyl-benzenesulfonyl)-2-(4-fluoro-Rhenyl)-pyrrolidine], the “agonistic / antagonistic activity to the mGlu receptor” value (shortened to “agonistic / antagonistic activity”) is “agonistic activty” and the “Remarks (agonist / antagonist)” value is “Agonist”. Take `Cc1ccc(S(=O)(=O)N2CCCC2c2ccc(N(C)C)cc2)cc1` (racemic) [Example 72, (RS)-2-(4-N,N-Dimethylamino-phenyl)-1-(toluene-4-sulfonyl)-pyrrolidine]: the “agonistic / antagonistic activity” value was “agonistic activty” and the “Remarks (agonist / antagonist)” value is recorded as “Agonist”. In the same order, the values of `Cc1ccc(S(=O)(=O)N2CCCC2c2ccc(F)c(F)c2)cc1` (racemic) [Example 38, (RS)-2-(3,4-Difluoro-phenyl)-1-(toluene-4-sulfonyl)-pyrrolidine] are “agonistic activty” and “Agonist”. In the same order, the values of `CCc1ccc(C2CCCN2S(=O)(=O)c2ccc(C)cc2)cc1` (racemic) [Example 78, (RS)-2-(4-Ethyl-phenyl)-1-(toluene-4-sulfonyl)-pyrrolidine] are “agonistic activty” and “Agonist”. `Cc1ccc(S(=O)(=O)N2CCC(C)C2c2ccc(F)cc2)cc1` (racemic) [Example 88, Mixture of (2RS,3RS )- and (2RS,3SR)-2-(4-fluoro-phenyl)-3-methyl-1-(toluene-1-sufonyl)-pyrrolidine]: the “agonistic / antagonistic activity” value is “agonistic activty” and the “Remarks (agonist / antagonist)” value is “agonist”. For the same molecule, the agonist/antagonist entry (activity-data table) was “agonist”. The EC50 (agonist, activation of mGlu 1a in EBNA cells, read-out: IC50 (compounds marked agonist)) was found to be 620 nM.

For `Cc1ccc(S(=O)(=O)N2CCCC2c2cccc(C)c2)cc1` (racemic) [Example 28, (RS)-1-(Toluene-4-sulfonyl)-2-m-tolyl-pyrrolidine], the “Remarks (agonist / antagonist)” value is listed as “Agonist”.

On to `O=S(=O)(c1ccc(Cl)cc1)N1CCCC1c1ccc(F)cc1` (racemic) [Example 11, (RS)-1-(4-Chloro-benzenesulfonyl)-2-(4-fluorophenyl)-pyrrolidine], for which the “Remarks (agonist / antagonist)” value is recorded as “Agonist”.

With `Cc1ccc(C2CCCN2S(=O)(=O)c2ccc(Cl)cc2)cc1` (racemic) [Example 20, (RS)-1-(4-Chloro-benzenesulfonyl)-2-p-tolyl-pyrrolidine], the “Remarks (agonist / antagonist)” value is “Antagonist”. As to `CC1CCN(S(=O)(=O)c2ccc(Cl)cc2)C1c1ccc(F)cc1` (racemic) [Example 89, Mixture of (2RS,3RS)- and (2RS,3 SR)-1-(4-chloro-benzenesulfonyl)-2-(4-fluoro-phenyl)-3-methyl-pyrrolidine], the “agonistic / antagonistic activity” value is given as “agonistic activty” and the “Remarks (agonist / antagonist)” value was “agonist”.

`O=C(O)/C=C/C(=O)O.O=S(=O)(c1ccc(CN2CCOCC2)cc1)N1CCCC1c1ccc(F)cc1` (racemic) [Example 86, (RS)-4-{4-[2-(4-Fluoro-phenyl)-pyrrolidine-1-sulfonyl]-benzyl}-morpholine fumarate (1:1)]: the “Remarks (agonist / antagonist)” value is “Antagonist”.

As for `O=S(=O)(c1ccc(F)cc1)N1CCCC1c1cccs1` (racemic) [Example 35, (RS)-1-(4-Fluoro-benzenesulfonyl)-2-thien-2-yl-pyrrolidine], the “Remarks (agonist / antagonist)” value is “Antagonist”.

Consider `O=S(=O)(c1ccc(F)cc1)N1CCCC1c1ccco1` (racemic) [Example 70, (RS)-1-(4-Fluoro-benzenesulfonyl)-2-furan-2-yl-pyrrolidine], for which the “Remarks (agonist / antagonist)” value is recorded as “Antagonist”.

On to `O=S(=O)(c1ccc(CO)cc1)N1CCCC1c1ccc(F)cc1` (racemic) [Example 84, (RS)-2-(4-Fluoro-phenyl)-1-(4-hydroxymethyl-benzenesulfonyl)-pyrrolidine], for which the “agonistic / antagonistic activity” value is listed as “agonistic activty” and the “Remarks (agonist / antagonist)” value is given as “Agonist”.

On to `Cc1ccc(S(=O)(=O)N2CCCC2c2ccc(F)cc2)cc1` (racemic) [Example 12, (RS)-2-(4-Fluoro-phenyl)-1-(toluene-4-sulfonyl)-pyrrolidine], for which the “Remarks (agonist / antagonist)” value was “Agonist”. Same read-out and setting: the entry for `O=S(=O)(c1cccc(F)c1)N1CCCC1c1ccc(F)cc1` (racemic) [Example 64, (RS)-1-(3-Fluoro-benzenesulfonyl)-2-(4-fluoro-phenyl)-pyrrolidine] is “Antagonist”. On the same count and under the same terms, as for `O=S(=O)(c1ccc(Cl)cc1)N1CCCC1c1cccc(F)c1` (racemic) [Example 2, (RS)-1-(4-Chloro-benzenesulfonyl)-2-(3-fluoro-phenyl)-pyrrolidine], the entry is “Agonist”; as for `N#Cc1ccc(S(=O)(=O)N2CCCC2c2ccc(F)cc2)cc1` (racemic) [Example 33, (RS)-2-(4-Fluoro-phenyl)-1-(4-cyano-benzenesulfonyl)-pyrrolidine], “Antagonist”. Same read-out and setting: the entry for `CC(=O)c1ccc(S(=O)(=O)N2CCCC2c2ccc(F)cc2)cc1` (racemic) [Example 27, (RS)-1-{4-[2-(4-Fluoro-phenyl)-pyrrolidine-1-sulfonyl]-phenyl}-ethanone] is “Antagonist”. On to `Cc1ccc(S(=O)(=O)N2CCCC2c2ccc(Cl)cc2)cc1` (racemic) [Example 8, (RS)-2-(4-Chloro-phenyl)-1-(toluene-4-sulfonyl)-pyrrolidine], for which the “agonistic / antagonistic activity” value is recorded as “agonistic activty” and the “Remarks (agonist / antagonist)” value is listed as “Agonist”. For `O=S(=O)(c1ccc(F)cc1)N1CCCC1c1ccc(C(F)(F)F)cc1` (racemic) [Example 50, (RS)-1-(4-Floro-benzenesulfonyl)-2-(4-trifluoromethyl-phenyl)-pyrrolidine], the “Remarks (agonist / antagonist)” value is recorded as “Antagonist”. For `Cc1ccc(S(=O)(=O)N2CCC[C@@H]2c2ccc(F)cc2)cc1` [Example 81, (R)-2-(4-Fluoro-phenyl)-1-(toluene-4-sulfonyl)-pyrrolidine], the “agonistic / antagonistic activity” value is given as “agonistic activty” and the “Remarks (agonist / antagonist)” value was “Agonist”. Consider `CN(C)c1ccc(C2CCCN2S(=O)(=O)c2ccc(F)cc2)cc1Cl` (racemic) [Example 46, (RS)-1-(4-fluoro-benzenesulfonyl)-2-(4-diimethylamino-3-chloro-phenyl)-pyrrolidine], for which the “Remarks (agonist / antagonist)” value was “Antagonist”.
